How the values were obtained:
[1] = tested on: Botryotinia fuckeliana (Botrytis cinerea); experiment: Botryotinia fuckeliana (Botrytis cinerea) / liquid culture (gray mould); type: cell-based; conditions: 200 ppm in the formulation, Vogels broth, 24° C., 3-4 days after application, vs untreated, read-out: disease control (inhibition of growth determined photometrically)
Description: (§1) Botryotinia fuckeliana (Botrytis cinerea)/Liquid Culture (Gray Mould) Conidia of the fungus from cryogenic storage are directly mixed into nutrient broth (Vogels broth). After placing a (DMSO) solution of test compound into a microtiter plate (96-well format), the nutrient broth containing the fungal spores is added. The test plates are incubated at 24° C. and the inhibition of growth is determined photometrically 3-4 days after application.

[2] = tested on: Monographella nivalis (Microdochium nivale); experiment: Monographella nivalis (Microdochium nivale) / liquid culture (foot rot cereals); type: cell-based; conditions: 200 ppm in the formulation, PDB potato dextrose broth, 24° C., 4-5 days after application, vs untreated, read-out: disease control (inhibition of growth determined photometrically)
Description: as §1, with “Monographella nivalis (Microdochium nivale)/liquid culture (foot rot cereals)” for “Botryotinia fuckeliana (Botrytis cinerea)/Liquid Culture (Gray Mould)”, “(PDB potato dextrose” for “(Vogels”, “4-5” for “3-4”

[3] = tested on: Mycosphaerella arachidis (Cercospora arachidicola); experiment: Mycosphaerella arachidis (Cercospora arachidicola) / liquid culture (early leaf spot); type: cell-based; conditions: 200 ppm in the formulation, PDB potato dextrose broth, 24° C., 4-5 days after application, vs untreated, read-out: disease control (inhibition of growth determined photometrically)
Description: as §1, with “Mycosphaerella arachidis (Cercospora arachidicola)/Liquid” for “Botryotinia fuckeliana (Botrytis cinerea)/Liquid”, “(Early Leaf Soot)” for “(Gray Mould)”, “(PDB potato dextrose” for “(Vogels”, “4-5” for “3-4”

[4] = tested on: Mycosphaerella graminicola (Septoria tritici); experiment: Mycosphaerella graminicola (Septoria tritici) / liquid culture (Septoria blotch); type: cell-based; conditions: Zymoseptoria tritici; 200 ppm in the formulation; PDB potato dextrose broth, 24° C., 4 to 5 days after application, vs untreated; read-out: disease control (inhibition of growth determined photometrically)
Description: as §1, with “Mycosphaerella graminicola (Septoria tritici)/Liquid” for “Botryotinia fuckeliana (Botrytis cinerea)/Liquid”, “(Septoria Blotch)” for “(Gray Mould)”, “(PDB potato dextrose” for “(Vogels”, “4 to 5” for “3-4”

Plasmopara viticola = type: in vivo; conditions: 200 ppm in the formulation; grape vine leaf disks, inoculated 1 day after application, assessed 6 to 8 days after application, vs untreated
Pythium ultimum = Pythium ultimum / liquid culture (seedling damping off); type: cell-based; conditions: Globisporangium ultimum; 200 ppm in the formulation; PDB potato dextrose broth, 24° C., 2-3 days after application, vs untreated; read-out: disease control (inhibition of growth determined photometrically)
Description: Pythium ultimum/Liquid Culture (Seedling Damping Off) Mycelia fragments and oospores of a newly grown liquid culture of the fungus are directly mixed into nutrient broth (PDB potato dextrose broth). After placing a (DMSO) solution of test compound into a microtiter plate (96-well format), the nutrient broth containing the fungal mycelia/spore mixture is added. The test plates are incubated at 24° C. and the inhibition of growth is determined photometrically 2-3 days after application.

[5] = tested on: Glomerella lagenarium (Colletotrichum lagenarium); experiment: Glomerella lagenarium (Colletotrichum lagenarium) / liquid culture (anthracnose); type: cell-based; conditions: Colletotrichum orbiculare; 200 ppm in the formulation; PDB potato dextrose broth, 24° C., 3 to 4 days after application, vs untreated; read-out: disease control (inhibition of growth measured photometrically)
Description: as §1, with “Glomerella lagenarium (Colletotrichum lagenarium)/Liquid” for “Botryotinia fuckeliana (Botrytis cinerea)/Liquid”, “(Anthracnose)” for “(Gray Mould)”, “(PDB potato dextrose” for “(Vogels”, “measured” for “determined”, “3 to 4” for “3-4”

| SMILES | inhibition at 200 ppm [1] | inhibition at 200 ppm [2] | inhibition at 200 ppm [3] | inhibition at 200 ppm [4] | disease control (Plasmopara viticola) | inhibition at 200 ppm (Pythium ultimum) | melting point | inhibition at 200 ppm [5] |
| --- | --- | --- | --- | --- | --- | --- | --- | --- |
| CC(OC(=O)[C@H](C)NC(=O)c1nccc(NC=O)c1O)C(c1ccc(F)cc1)c1ccc(F)cc1 (stereo partly drawn) [Compound I.a.42, [2,2-bis(4-fluorophenyl)-1-methyl-ethyl] (2S)-2-[(4-formamido-3-hydroxy-pyridine-2-carbonyl)amino] propanoate] | ≥ 80% | ≥ 80% | ≥ 80% | ≥ 80% | at least 80% | ≥ 80% | 101 to 113 °C | – |
| CC(C)C(=O)OCOc1c(NC=O)ccnc1C(=O)N[C@@H](C)C(=O)OC(C)C(c1ccccc1)c1ccccc1 (stereo partly drawn) [Compound I.k.33, [4-formamido-2-[[(1S)-1-methyl-2-(1-methyl-2,2-diphenyl-ethoxy)-2-oxo-ethyl]carbamoyl]-3-pyridyl]oxymethyl 2-methylpropanoate] | ≥ 80% | ≥ 80% | ≥ 80% | ≥ 80% | – | – | – | ≥ 80% |
| CC(C)C(=O)OCOc1c(NC=O)ccnc1C(=O)N[C@@H](C)C(=O)OC(C)C(c1ccc(F)cc1)c1ccc(F)cc1 (stereo partly drawn) [Compound I.k.42, [2-[[(1S)-2-[2,2-bis(4-fluorophenyl)-1-methyl-ethoxy]-1-methyl-2-oxo-ethyl]carbamoyl]-4-formamido-3-pyridyl]oxymethyl 2-methylpropanoate] | ≥ 80% | ≥ 80% | ≥ 80% | ≥ 80% | – | – | – | ≥ 80% |
| CC(OC(=O)[C@H](C)NC(=O)c1nccc(N)c1O)C(c1ccc(F)cc1)c1ccc(F)cc1 (stereo partly drawn) [I.w.42, [2,2-bis(4-fluorophenyl)-1-methyl-ethyl] (2S)-2-[(4-amino-3-hydroxy-pyridine-2-carbonyl)amino]propanoate] | ≥ 80% | ≥ 80% | ≥ 80% | ≥ 80% | – | – | – | ≥ 80% |
| CC(C)C(=O)OCOc1c(N)ccnc1C(=O)N[C@@H](C)C(=O)OC(C)C(c1ccccc1)c1ccccc1 (stereo partly drawn) [I.y.33, [4-amino-2-[[(1S)-1-methyl-2-(1-methyl-2,2-diphenyl-ethoxy)-2-oxo-ethyl]carbamoyl]-3-pyridyl] oxymethyl 2-methylpropanoate] | ≥ 80% | ≥ 80% | ≥ 80% | ≥ 80% | – | – | – | – |
| CC(C)C(=O)OCOc1c(N)ccnc1C(=O)N[C@@H](C)C(=O)OC(C)C(c1ccc(F)cc1)c1ccc(F)cc1 (stereo partly drawn) [I.y.42, [4-amino-2-[[(1S)-2-[2,2-bis(4-fluorophenyl)-1-methyl-ethoxy]-1-methyl-2-oxo-ethyl]carbamoyl]-3-pyridyl]oxymethyl 2-methylpropanoate] | ≥ 80% | ≥ 80% | ≥ 80% | ≥ 80% | – | – | – | – |

Reference: patent publication US20220264877A1, “MICROBIOCIDAL PICOLINAMIDE DERIVATIVES” (SYNGENTA CROP PROTECTION AG, priority 2019, published 2022)
